Experimental data reported in publication PMC6597546, “Identification of a potent benzoxaborole drug candidate for treating cryptosporidiosis” (Nature Communications, 2019).
Values after ≈ are worked out from the molar mass of the structure shown. Values joined by “and” are separate entries in the source; they are usually repeats but may differ in a detail not shown here. Equal entries are not always repeated. Where two headings read alike, the source gives them in different places.

Assays:
Solubility PBS pH 7.4 = type: physicochemical; conditions: aqueous buffer
[1] = Plasma Protein Binding (mouse); type: in vitro ADME; conditions: read-out: Plasma Protein Binding (PPB) (converted)
[2] = Single-dose oral and intravenous murine PK; type: in vivo, female CD-1 mice; conditions: female, mouse, plasma, CD-1 mice
Protocol: Single-dose oral and intravenous murine PK studies were performed by WuXi Biologics (Wuxi, China) in female CD-1 mice in compliance with animal care guidelines. […] Single-dose oral calf PK studies were performed at the University of Vermont in compliance with animal care guidelines and with approval from the University of Vermont Institutional Animal Care and Use Committee. […] Doses were squirted into the calves’ mouths during interruptions in bottle feeding. Fecal samples were collected at the indicated times by manual anal stimulation. […] Fecal AN7973 was measured by extracting AN7973 from homogenized feces with acetonitrile. For this, feces were added to 4 volumes of acetonitrile (4 mL per g), mixed by vortexing for 5 min at room temperature, and then centrifuged. […] The fecal extraction method was validated with a standard curve of compound added to control feces. […] Non-compartmental analysis of the mean concentration-time profiles was performed using Phoenix version 6.4 (Pharsight Corporation, Mountain View, CA, USA). Concentrations below the limit of quantitation were assigned values of zero for generation of mean concentrations. Predictions of multidose exposures were generated by non-parametric superposition of the single-dose PK data using Phoenix version 6.4 (Supplementary Fig. 5).

[3] = 7-day repeated oral dose toxicity study in rats
Protocol: A repeated oral dose toxicity and separate toxicokinetics (TK) study were performed in male rats by WuXi AppTec Company (Suzhou, China). […] Animals were individually housed in solid bottom plastic cages with bedding in compliance with the US Animal Welfare Act. All rat studies were performed using ∼8-week-old Sprague-Dawley male rats (Rattus novegicus)/Crl: CD[SD] […] Cage side clinical observations of condition and behavior (i.e., gait, stool, activity level, atonia, coat soiling and grooming, skin turgor, posture, priapism, piloerection) were performed twice daily during the dosing phase, and weights and food consumption were measured daily. At termination, all study animals were evaluated for erythrocyte count, absolute reticulocyte count, alkaline phosphatase, and triglycerides by fasting the animals overnight and obtaining blood from the abdominal aorta at necropsy as a terminal procedure under deep anesthesia (pentobarbital). A complete necropsy and histopathologic studies (hematoxylin and eosin staining) of large intestine, small intestine, stomach, and any gross lesions were performed on all animals on day 7 of dosing. […] Serum was collected from vehicle-control animals at 1 h and 4 h after dosing on days 1 and 7. […] Following completion of blood collection, TK animals were euthanized by CO2 inhalation and exsanguination without necropsy.

[4] = Plasma Protein Binding (bovine); type: in vitro ADME; conditions: read-out: Plasma Protein Binding (PPB) (converted)
CYP2D6 = CYP2D6 (Homo sapiens, UniProt P10635); test: CYP450 inhibition 2D6; type: in vitro ADME
[5] = system: Escherichia coli and Salmonella typhimurium; test: AMES bacterial reverse mutation assay; conditions: five strains with and without S9, up to 5000 µg per plate
Protocol: In vitro safety profiling studies were conducted by Ricerca Biosciences (Taipei, Taiwan) and WuXi AppTec (Suzhou, China). Ricerca performed a Lead Profiling and Adverse Reaction Enzyme panel of 109 off-target enzymes and receptors. This included the hERG K+ ion channel, which is associated with cardiac tachyarrhythmias, and used a radioligand binding competition format with 10 µM test compound for 1 h at 25 °C. For the enzyme and receptor panel, competitive inhibition at 10 µM of test compound was the most common assay format. The AMES bacterial reverse mutation assay detects point mutations in Escherichia coli and Salmonella typhimurium as an indicator of mutagenic activity. Bacterial strains were obtained from Molecular Toxicology (Boone, NC).

[6] = system: C. parvum (University of Arizona Iowa isolate); type: in vivo, C57BL/6 IFN-γ−/− mice
Protocol: Interferon gamma (IFN-γ) knockout mice were used to model acute Cryptosporidium infection. All IFN-γ knockout mouse studies were performed in compliance with animal care guidelines and were approved by the Explora BioLabs (San Diego, CA) Institutional Animal Care and Use Committee. Four-week-old female C57BL/6 IFN-γ^−/− mice with normal flora were purchased from The Jackson laboratory and acclimated for 3 days prior to infection by oral gavage with ∼10^6 C. parvum Iowa isolate oocysts (Sterling Laboratory, University of Arizona) suspended in sterile distilled water. At the indicated times following infection, mice were treated with compound vehicle alone, clofazimine (positive control), or once daily AN7973 at the indicated doses. Fecal parasite shedding was measured by isolating oocysts using sucrose gradient centrifugation. Sheather’s sucrose solution was freshly prepared by dissolving 156.25 g sucrose and 2.5 mL phenol in 100 mL water. Two sucrose solutions were prepared: (A) specific gravity of 1.103 (33% Sheather’s and 0.1% Tween 80 in PBS) and (B) specific gravity of 1.064 (20% Sheather’s and 0.1% Tween 80 in PBS). In a 2 mL microfuge tube, a gradient was prepared by laying 0.75 mL of solution A, then carefully laying 0.75 mL of solution B, slowly as to prevent mixing of the two layers. Fecal pellets were removed from storage, and homogenized by vortexing and pipetting. 0.2 mL fecal homogenate was overlaid on top of gradient in each microfuge tube. Oocysts were floated from feces by centrifugation at 1000 × g for 20 min and collected with a pipet tip from the 1.064/1.103 specific gravity interface between solutions A and B. Oocysts were rinsed once in cold PBS, pelleted by centrifugation at 15,000 × g for 10 min, and resuspended in PBS. Isolated oocysts were then stained with a fluorescein isothiocyanate-conjugated mouse anti-Cryptosporidium antibody (Bio-Rad catalog# 2402-3007 F; 0.25 µg per sample) and quantified using a Guava EasyCyte flow cytometer and CytoSoft data acquisition software (version 5.3; Guava Technologies, Inc.). Oocysts per milliliter of sample were normalized to counts per milligram of feces.

[7] = 2 mg/kg, intravenous 2 mg per kg

Chain of CYP2D6 (P10635 whole entry): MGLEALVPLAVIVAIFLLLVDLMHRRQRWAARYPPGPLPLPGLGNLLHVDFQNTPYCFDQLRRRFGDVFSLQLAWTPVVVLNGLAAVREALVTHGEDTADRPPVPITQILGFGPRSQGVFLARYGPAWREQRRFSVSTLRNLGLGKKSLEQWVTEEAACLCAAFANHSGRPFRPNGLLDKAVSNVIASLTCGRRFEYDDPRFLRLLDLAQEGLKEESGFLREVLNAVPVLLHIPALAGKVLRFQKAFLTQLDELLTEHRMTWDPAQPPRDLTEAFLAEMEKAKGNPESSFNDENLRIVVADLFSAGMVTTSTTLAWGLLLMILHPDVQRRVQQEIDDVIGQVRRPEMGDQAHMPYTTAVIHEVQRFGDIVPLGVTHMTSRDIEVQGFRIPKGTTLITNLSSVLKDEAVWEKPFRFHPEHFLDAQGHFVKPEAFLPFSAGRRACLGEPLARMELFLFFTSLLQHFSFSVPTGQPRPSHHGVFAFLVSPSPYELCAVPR

**Q.** For `CC1(C)OB(O)c2cc(NC(=O)c3ccc(-n4cccn4)cc3Cl)ccc21` [AN7973], which solubility (Solubility PBS pH 7.4) is on record?
**A.** 126 µM (≈ 48.1 µg/mL)

**Q.** What about the fraction unbound [1] of the same compound?
**A.** 0.011

**Q.** What about the AUC(0-inf) [2, 7] of the same compound?
**A.** 49700 ng·h/mL

**Q.** What about the Cmax [2, 7] of the same compound?
**A.** 6820 ng/mL

**Q.** What about the clearance [2, 7] of the same compound?
**A.** 0.667 mL/min/kg

**Q.** And the half-life [2, 7]?
**A.** 6 h

**Q.** What about the AUC(0-inf) ([2]; 10 mg/kg, oral 10 mg per kg) of the same compound?
**A.** 92700 ng·h/mL

**Q.** And the Cmax ([2]; 10 mg/kg, oral 10 mg per kg)?
**A.** 8630 ng/mL

**Q.** And the half-life ([2]; 10 mg/kg, oral 10 mg per kg)?
**A.** 6.6 h

**Q.** What about the bioavailability ([2]; 10 mg/kg, oral 10 mg per kg, read-out: bioavailability F) of the same compound?
**A.** 37%

**Q.** And the tolerability in rats ([3]; 80 mg per kg per day oral gavage, seven days, male rats)?
**A.** well tolerated

**Q.** And the “Alkaline phosphatase on day 8” value ([3]; 80 mg·kg-1·d-1, mean ± SD)?
**A.** 188 ± 17 U·L-1

**Q.** And the “Average weight on day 1” value ([3]; 80 mg·kg-1·d-1, mean ± SD)?
**A.** 260.24 g

**Q.** And the “Average weight on day 7” value ([3]; 80 mg·kg-1·d-1, mean ± SD)?
**A.** 305.36 ± 8.8 g

**Q.** And the “Reticulocyte count on day 8” value ([3]; 80 mg·kg-1·d-1, mean ± SD)?
**A.** 563.2 ± 66.6 ×10^9 per L

**Q.** What about the “Total food consumption (days 1-7)” value ([3]; 80 mg·kg-1·d-1, mean ± SD) of the same compound?
**A.** 156.1 ± 10.1 g

**Q.** And the “Triglycerides on day 8” value ([3]; 80 mg·kg-1·d-1, mean ± SD)?
**A.** 0.39 ± 0.16 mmol/L

**Q.** What about the “Mortality (unscheduled deaths)” value ([3]; 80 mg·kg-1·d-1, n=5) of the same compound?
**A.** 0

**Q.** And the fraction unbound [4]?
**A.** 0.04

**Q.** And the inhibition at 10 µM (CYP2D6)?
**A.** 0%

**Q.** What about the “Ames test for mutagenic potential” value [5] of the same compound?
**A.** negative

**Q.** What about the “fecal oocyst shedding, individual mice” value ([6]; 10 mg/kg QD from day 4, day p.i. 8) of the same compound?
**A.** 5.45 and 13 (2×) and 10

**Q.** And the “fecal oocyst shedding, individual mice” value ([6]; 10 mg/kg QD from day 4, day p.i. 14)?
**A.** 11 and 15 (2×) and 21

**Q.** What about the “fecal oocyst shedding, individual mice” value ([6]; 25 mg/kg QD from day 4, day p.i. 7) of the same compound?
**A.** 3 (2×) and 6 and 9

**Q.** And the “efficacy in IFN-γ KO mouse” value ([6]; 5, 10, 25 mg per kg once daily oral, efficacy at 10 mg per kg, maximal efficacy similar to clofazimine)?
**A.** dose-dependent efficacy

**Q.** And the “adverse effects in IFN-γ KO mice” value ([6]; mouse, in vivo)?
**A.** no adverse effects
